Measurements reported in US12209087B2, “AKT1 modulators” (Alterome Therapeutics, Inc., priority 2022, dated 2025).

The compounds below were run against T1, full length AKT E17K (Homo sapiens, UniProt P31749, E17K) (assay: NanoBRET Target Engagement (TE) Assay). Settings: competitive displacement of tracer in cells, read-out: AKT1 E17K IC50.
T1 construct: host or cells: HEK-293 (ATCC CRL-1573)
Type: cell-based
Source text: The NanoBRET™ Target Engagement (TE) Intracellular Kinase Assays are based on the NanoBRET™ System (Promega Corporation), an energy transfer technique designed to measure molecular proximity in living cells. The NanoBRET™ TE Assays measure the apparent affinity of test compounds by competitive displacement of the NanoBRET™ tracer compound, which is a cell permeable molecule engineered to be reversibly bound to a NanoLuc® luciferase-kinase fusion expressed in cells. For compound screening, when a test compound binds to the selected kinase, the BRET signal is attenuated. […] All cells were evaluated for viability prior to transfection and optimization of the transfection was done prior to experimentation. […] Following transfection, cells were washed and resuspended in Opti-MEM. NanoBRET assays were performed in white, 384-well plates (Corning) at a density of […]. All example compounds were prepared as concentrated stock solutions in DMSO (Sigma-Aldrich). Compounds are dissolved in DMSO to make 10 mM stock solution. […] A Labcyte ECHO 550 compound dispenser was used to facilitate compound transfer directly to cells. Cells were equilibrated for 2 hr with energy transfer probes and example compound prior to BRET measurements. […] For target engagement analysis, the energy transfer probes were added to the cells at concentrations optimized for the target in question (AKT E17K). Following compound incubation, NanoBRET NanoGlo Substrate (Promega Cat #N157D) and Extracellular Nanoluc Inhibitor (Promega Cat #N235C) was added according to the manufacturer's recommended protocol, and luminescence was measured on Envision Reader (Perkin Elmer) Multimode Luminometer equipped with 450 nm BPfilter (donor) and 600 nm LPfilter (acceptor), using 0.5 s integration time. Milli-BRET units (mBU) are calculated by multiplying the raw BRET values by 1000. Apparent tracer affinity values (EC50) were determined using the sigmoidal dose-response (variable slope).
Competitive displacement data were then plotted and data were fit to determine the EC50 value for each example compound.

T1 sequence (P31749 whole entry E17K): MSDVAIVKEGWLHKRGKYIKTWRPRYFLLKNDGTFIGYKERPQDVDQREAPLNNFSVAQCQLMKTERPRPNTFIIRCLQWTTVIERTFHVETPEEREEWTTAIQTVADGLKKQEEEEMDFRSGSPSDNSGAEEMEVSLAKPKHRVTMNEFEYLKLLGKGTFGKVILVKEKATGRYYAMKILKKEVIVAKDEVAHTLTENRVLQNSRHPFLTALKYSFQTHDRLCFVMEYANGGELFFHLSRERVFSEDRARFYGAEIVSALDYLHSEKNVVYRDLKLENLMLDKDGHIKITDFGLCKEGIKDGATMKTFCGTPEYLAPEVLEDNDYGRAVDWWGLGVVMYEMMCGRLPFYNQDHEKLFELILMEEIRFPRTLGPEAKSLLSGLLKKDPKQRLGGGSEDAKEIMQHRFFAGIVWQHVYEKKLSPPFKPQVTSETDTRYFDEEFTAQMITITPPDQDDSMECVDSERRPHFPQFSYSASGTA

| IC50 [nM] | SMILES |
| --- | --- |
| 600 to 10000 | N#Cc1nccc(NC2CCN(Cc3ccc(-n4c(-c5cncnc5)nc5ccc(-c6ccc(F)cn6)nc54)cc3)CC2)n1 [Example 601, 4-((1-(4-(5-(5-Fluoropyridin-2-yl)-2-(pyrimidin-5-yl)-3H-imidazo[4,5-b]pyridin-3-yl)benzyl)piperidin-4-yl)amino)pyrimidine-2-carbonitrile] |
| < 15 | Cn1ncc(-c2ccc3nc(-c4cccnc4N)n(-c4ccc(CN5CCC(Nc6ccnc(C#N)n6)CC5)cc4)c3n2)n1 [Example 472, 4-((1-(4-(2-(2-Aminopyridin-3-yl)-5-(2-methyl-2H-1,2,3-triazol-4-yl)-3H-imidazo[4,5-b]pyridin-3-yl)benzyl)piperidin-4-yl)amino)pyrimidine-2-carbonitrile] |
| < 15 | N#Cc1nccc(NC2CCN(Cc3ccc(-n4c(-c5nccnc5N)nc5ccc(-c6cnn(C7CC7)n6)nc54)cc3)CC2)n1 [Example 631, 4-((1-(4-(2-(3-Aminopyrazin-2-yl)-5-(2-cyclopropyl-2H-1,2,3-triazol-4-yl)-3H-imidazo[4,5-b]pyridin-3-yl)benzyl)piperidin-4-yl)amino)pyrimidine-2-carbonitrile] |
| 60 to 600 | N#Cc1nccc(NC2CCN(Cc3ccc(-n4c(-c5conc5N)nc5ccc(-c6ccc(F)cn6)nc54)cc3)CC2)n1 [Example 622, 4-((1-(4-(2-(3-Aminoisoxazol-4-yl)-5-(5-fluoropyridin-2-yl)-3H-imidazo[4,5-b]pyridin-3-yl)benzyl)piperidin-4-yl)amino)pyrimidine-2-carbonitrile] |
| < 15 | Cn1cc(-c2ccc3nc(-c4cccnc4N)n(-c4ccc(CN5CCC(Nc6ccnc(C#N)n6)CC5)cc4)c3n2)cc1C#N [Example 481, 4-((1-(4-(2-(2-Aminopyridin-3-yl)-5-(5-cyano-1-methyl-1H-pyrrol-3-yl)-3H-imidazo[4,5-b]pyridin-3-yl)benzyl)piperidin-4-yl)amino)pyrimidine-2-carbonitrile] |
| 15 to 60 | N#Cc1nccc(NC2CCN(Cc3ccc(-n4c(-c5cccnc5N)nc5ccc(-c6ccc(F)cc6Cl)nc54)cc3)CC2)n1 [Example 498, 4-((1-(4-(2-(2-Aminopyridin-3-yl)-5-(2-chloro-4-fluorophenyl)-3H-imidazo[4,5-b]pyridin-3-yl)benzyl)piperidin-4-yl)amino)pyrimidine-2-carbonitrile] |
| < 15 | N#Cc1nccc(NC2CCN(Cc3ccc(-n4c(-c5cccnc5N)nc5ccc(-n6ccnn6)nc54)cc3)CC2)n1 [Example 591, 4-((1-(4-(2-(2-Aminopyridin-3-yl)-5-(1H-1,2,3-triazol-1-yl)-3H-imidazo[4,5-b]pyridin-3-yl)benzyl)piperidin-4-yl)amino)pyrimidine-2-carbonitrile] |
| 60 to 600 | N#Cc1nccc(NC2CCN(Cc3ccc(-n4c(-c5cccnc5N)nc5ccc(-c6ccccc6C(F)(F)F)nc54)cc3)CC2)n1 [Example 470, 4-((1-(4-(2-(2-Aminopyridin-3-yl)-5-(2-(trifluoromethyl)phenyl)-3H-imidazo[4,5-b]pyridin-3-yl)benzyl)piperidin-4-yl)amino)pyrimidine-2-carbonitrile] |
| < 15 | [2H]C([2H])(c1ccc(-n2c(-c3cccnc3N)nc3ccc(-c4ccc(F)cc4)nc32)cc1)N1CCC(Nc2ccnc(C#N)n2)CC1 [Example 489, 4-((1-((4-(2-(2-Aminopyridin-3-yl)-5-(4-fluorophenyl)-3H-imidazo[4,5-b]pyridin-3-yl)phenyl)methyl-d2)piperidin-4-yl)amino)pyrimidine-2-carbonitrile] |
| < 15 | COc1ccc(-c2ccc3nc(-c4cccnc4N)n(-c4ccc(CN5CCC(Nc6ccnc(C#N)n6)CC5)cc4)c3n2)cc1 [Example 421, 4-((1-(4-(2-(2-Aminopyridin-3-yl)-5-(4-methoxyphenyl)-3H-imidazo[4,5-b]pyridin-3-yl)benzyl)piperidin-4-yl)amino)pyrimidine-2-carbonitrile] |

Continued, compound first:

| SMILES | IC50 [nM] |
| --- | --- |
| N#Cc1ccnc(N2CCN(Cc3ccc(-n4c(-c5cccnc5N)nc5ccc(C6CC6)nc54)cc3)CC2)n1 [Example 350, 2-(4-(4-(2-(2-Aminopyridin-3-yl)-5-cyclopropyl-3H-imidazo[4,5-b]pyridin-3-yl)benzyl)piperazin-1-yl)pyrimidine-4-carbonitrile] | 15 to 60 |
| N#Cc1nccc(N2C[C@@H]3CN(Cc4ccc(-n5c(-c6cccnc6N)nc6ccc(-c7ccc(F)cc7)nc65)cc4)C[C@H]3C2)n1 [Example 450, 4-((3aS,6aS)-5-(4-(2-(2-Aminopyridin-3-yl)-5-(4-fluorophenyl)-3H-imidazo[4,5-b]pyridin-3-yl)benzyl)hexahydropyrrolo[3,4-c]pyrrol-2(1H)-yl)pyrimidine-2-carbonitrile] | 15 to 60 |
| C[C@@H]1CN(Cc2ccc(-n3c(-c4cccnc4N)nc4ccc(-c5ccccc5)nc43)cc2)C[C@H](C)N1c1ccnc(C#N)n1 [Example 378, 4-((2S,6R)-4-(4-(2-(2-Aminopyridin-3-yl)-5-phenyl-3H-imidazo[4,5-b]pyridin-3-yl)benzyl)-2,6-dimethylpiperazin-1-yl)pyrimidine-2-carbonitrile] | 60 to 600 |

Same assay, conditions: competitive tracer displacement in living cells, read-out: AKT1 E17K IC50

| IC50 [nM] | SMILES |
| --- | --- |
| 600 to 10000 | N#Cc1nc(C(=O)NCc2ccc(-n3c(-c4cccnc4N)nc4cccnc43)cc2)cs1 [Example 244, N-(4-(2-(2-Aminopyridin-3-yl)-3H-imidazo[4,5-b]pyridin-3-yl)benzyl)-2-cyanothiazole-4-carboxamide] |
| < 15 | N#Cc1ncnc(N2C[C@H]3C[C@@H]2CN3Cc2ccc(-n3c(-c4cccnc4N)nc4ccc(-c5ccccc5)nc43)cc2)n1 [Example 272, 4-((1R,4R)-5-(4-(2-(2-aminopyridin-3-yl)-5-phenyl-3H-imidazo[4,5-b]pyridin-3-yl)benzyl)-2,5-diazabicyclo[2.2.1]heptan-2-yl)-1,3,5-triazine-2-carbonitrile] |
| 60 to 600 | N#Cc1nccc(NC2CCN(Cc3ccc(-n4c(-c5cccnc5N)nc5ccc(-c6ccc(=O)[nH]c6)nc54)cc3)CC2)n1 [Example 266, 4-((1-(4-(2-(2-Aminopyridin-3-yl)-5-(6-oxo-1,6-dihydropyridin-3-yl)-3H-imidazo[4,5-b]pyridin-3-yl)benzyl)piperidin-4-yl)amino)pyrimidine-2-carbonitrile] |
| 15 to 60 | N#Cc1nccc(N2CCCN(Cc3ccc(-n4c(-c5cccnc5N)nc5ccc(-c6ccccc6)nc54)cc3)CC2)n1 [Example 214, 4-(4-(4-(2-(2-Aminopyridin-3-yl)-5-phenyl-3H-imidazo[4,5-b]pyridin-3-yl)benzyl)-1,4-diazepan-1-yl)pyrimidine-2-carbonitrile] |
| 15 to 60 | C[C@H]1CN(Cc2ccc(-n3c(-c4cccnc4N)nc4ccc(-c5ccccc5)nc43)cc2)CCN1c1ccnc(C#N)n1 [Example 206, (S)-4-(4-(4-(2-(2-Aminopyridin-3-yl)-5-phenyl-3H-imidazo[4,5-b]pyridin-3-yl)benzyl)-2-methylpiperazin-1-yl)pyrimidine-2-carbonitrile] |
| < 15 | N#Cc1nc2cc(C(=O)NC3CCN(Cc4ccc(-n5c(-c6cccnc6N)nc6ccc(-c7ccccc7)nc65)cc4)CC3)ccc2s1 [Example 185, N-(1-(4-(2-(2-aminopyridin-3-yl)-5-phenyl-3H-imidazo[4,5-b]pyridin-3-yl)benzyl)piperidin-4-yl)-2-cyanobenzo[d]thiazole-5-carboxamide] |
| 15 to 60 | N#Cc1nnccc1C(=O)NC1CCN(Cc2ccc(-n3c(-c4cccnc4N)nc4ccc(-c5ccccc5)nc43)cc2)CC1 [Example 71, N-(1-(4-(2-(2-Aminopyridin-3-yl)-5-phenyl-3H-imidazo[4,5-b]pyridin-3-yl)benzyl)piperidin-4-yl)-3-cyanopyridazine-4-carboxamide] |
| 600 to 10000 | N#Cc1nc2cc(F)cc(C(=O)N3CCN(Cc4ccc(-n5c(-c6cccnc6N)nc6cccnc65)cc4)CC3)c2s1 [Example 175, 7-(4-(4-(2-(2-aminopyridin-3-yl)-3H-imidazo[4,5-b]pyridin-3-yl)benzyl)piperazine-1-carbonyl)-5-fluorobenzo[d]thiazole-2-carbonitrile] |
| 60 to 600 | N#Cc1cccc(NC2CCN(Cc3ccc(-n4c(-c5cccnc5N)nc5ccc(-c6ccccc6)nc54)cc3)CC2)n1 [Example 86, 6-((1-(4-(2-(2-Aminopyridin-3-yl)-5-phenyl-3H-imidazo[4,5-b]pyridin-3-yl)benzyl)piperidin-4-yl)amino)picolinonitrile] |

| SMILES | IC50 [nM] |
| --- | --- |
| N#Cc1cc(N2C3CCC2CN(Cc2ccc(-n4c(-c5cccnc5N)nc5ccc(-c6ccccc6)nc54)cc2)C3)ncn1 [Example 205, 6-(3-(4-(2-(2-Aminopyridin-3-yl)-5-phenyl-3H-imidazo[4,5-b]pyridin-3-yl)benzyl)-3,8-diazabicyclo[3.2.1]octan-8-yl)pyrimidine-4-carbonitrile] | 60 to 600 |
